Measured values as given in PubChem BioAssay AID1421 (Emory University Molecular Libraries Screening Center, 2008).

target: Prostaglandin E2 receptor EP2 subtype (Homo sapiens) (UniProt P43116); assay: EP2 receptor modulators, dose response, cell-based, human EP2, PGE2 EC50 shift (AID 1421); settings: EP2-expressing cells, PGE2 EC50 shift by compound; measured here: PGE2 EC50 at 6.7 uM compound
Sequence (P43116 whole entry, looked up): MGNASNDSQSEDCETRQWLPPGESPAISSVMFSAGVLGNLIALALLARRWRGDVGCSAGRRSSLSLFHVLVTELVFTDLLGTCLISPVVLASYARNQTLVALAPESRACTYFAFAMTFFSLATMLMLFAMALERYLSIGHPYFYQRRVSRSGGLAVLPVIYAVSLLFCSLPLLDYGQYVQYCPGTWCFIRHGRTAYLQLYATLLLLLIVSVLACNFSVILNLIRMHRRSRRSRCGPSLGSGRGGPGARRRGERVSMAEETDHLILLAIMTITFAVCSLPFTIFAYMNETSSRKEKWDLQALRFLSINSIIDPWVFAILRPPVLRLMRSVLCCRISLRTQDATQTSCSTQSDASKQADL

Compound	PGE2 EC50 with compound
COCC(=O)N(C)c1nnc(-c2cnc(C)cn2)s1	1.36 nM
C[C@@H]1CC[C@H]2C(C)(C)C3CC12CC[C@@]3(C)O (stereo partly drawn)	0.32 nM
Cc1sc2ncnc(N(C)Cc3cccs3)c2c1C	2.57 nM
Fc1ccccc1Nc1nc2c(s1)CCc1ccccc1-2	1.03 nM
O=c1c2oc3ccccc3c2[nH]c(=S)n1-c1ccccc1	1.25 nM
CCOC(=O)c1c(NC(=O)COC(=O)Cn2c(C)nc3ccccc32)sc2c1CCCC2	1.02 nM
O=c1cc(N2CCCCC2)c(-c2ccccc2)nn1Cc1ccc(F)cc1	2.5 nM
O=C1N2c3ccccc3CCc3cccc(c32)C1(O)C(F)(F)F (stereo not drawn)	0.81 nM
CC(=O)O[C@H]1CC[C@@]2(C)[C@@H](CC[C@H]3[C@H]2CC(=O)[C@]2(C)[C@@H]3C[C@H]3CC(C)=CC(=O)[C@@H]32)C1	1.34 nM
CCOC(=O)c1c(-c2ccc(C)o2)csc1NC(=O)CN1CCCCC1	0.73 nM
CC(=O)OC[C@@]1(O)C[C@@]23CCC4c5ccoc5CC[C@]4(C)C2CC[C@@H]1C3 (stereo partly drawn)	0.85 nM
Cc1cc(C)c(S(=O)(=O)c2ccccc2)c(OC(=O)c2cc(F)c(F)cc2Cl)n1	0.91 nM
Cn1c(C(=O)N2CCCc3ccccc32)cc2sccc21	2.41 nM
CCCCCc1ccc(-c2ccc(=O)[nH]n2)cc1	1.44 nM
Cc1nc2c(c(C)nn2-c2ccccc2)c(C)c1Cl	0.69 nM
Nn1cnc2c(c1=O)C1(CCCCC1)Cc1ccccc1-2	0.81 nM
O=c1c2ccccc2nc(N2CCCC2)n1-c1ccc(Cl)cc1	2.64 nM
Cc1cc(SCC(=O)NCCC2=CCCCC2)nc2ccccc12	2.66 nM
Cc1ccccc1OCc1nc2ccccc2c(=O)n1/N=C/c1ccco1	1.02 nM
O=C(CSCc1cccc(Cl)c1)Nc1ccccc1-c1ccccc1	0.74 nM

Compound	PGE2 EC50 with compound
O=c1[nH]ncc2c3ccccc3n(Cc3cccc(Cl)c3)c12	0.98 nM
COc1ccc2cc(CN(Cc3ccco3)C(c3nnnn3C3CCCCC3)C(C)C)c(=O)[nH]c2c1 (stereo not drawn)	0.76 nM
Brc1ccc(Cn2c(-c3cncs3)nc3ccccc32)cc1	1.66 nM
Cc1ccc(C2CC2c2n[nH]c(=S)n2-c2ccc(C)cc2)cc1 (stereo not drawn)	1.12 nM
CC(C)(C)C1CCC(=NNc2ccc(S(N)(=O)=O)cc2[N+](=O)[O-])CC1 (stereo not drawn)	1.01 nM
Cc1cc(C)cc(C(=N)c2ccccc2Cc2cccc3ccccc23)c1	1.22 nM
CCc1nc(N2CCCCC2)c2oc3ccccc3c2n1	0.8 nM
Cc1ccccc1S(=O)(=O)c1c(C)cc(C)n(CC(C)C)c1=O	2.47 nM
Cc1ccc(C2CC(c3cccs3)=NN2C(=O)c2ccc(Br)o2)cc1 (stereo not drawn)	0.75 nM
CC(C)n1c2ccccc2c2nnc(SCC(=O)Nc3ccccc3C(=O)O)nc21	2.65 nM
O=c1cc(N2CCCCC2)c(-c2ccccc2)nn1Cc1ccccc1	1.25 nM
CCOC(=O)C(Cc1ccccc1)(NC(C)=O)C(=O)OCC	1.39 nM
O=C(COC(=O)c1ccc(S(=O)(=O)N2CCCC2)cc1)Nc1ccc(F)cc1F	1.73 nM
CCn1c2ccc(F)cc2c2nc3ccccc3nc21	0.86 nM
O=c1c2ccccc2c(-c2ccccc2)nn1Cc1c(Cl)cccc1Cl	0.84 nM
c1ccc(CCc2ccccc2-c2nc(-c3cccnc3)no2)cc1	0.84 nM
CCOC(=O)c1c(NC(=O)COC(=O)Cn2cnc3ccccc32)sc2c1CCC(C)C2 (stereo not drawn)	0.79 nM
Cc1ccc(-n2c(=S)[nH]c3c(oc4ccccc43)c2=O)cc1C	1.76 nM
Cc1cc(O)c(C=O)c2c1C(=O)Oc1c(COC(=O)/C=C/C(=O)O)c(O)c(C(=O)O)c(C)c1O2	0.54 nM
NC(=O)COc1ccc(C23CC4CC(CC(C4)C2)C3)cc1	2.56 nM

Compound	PGE2 EC50 with compound
N#CCSc1nc2c(c(C3CC=CCC3)c1C#N)CCC2 (stereo not drawn)	1.45 nM
Cc1nc2ccccc2nc1SCC(=O)N1CCC(C)CC1	2.77 nM
Cc1ccc2nc(-c3ccccn3)c(Nc3ccccc3C)n2c1	0.79 nM
CCCc1cc(-c2n[nH]c(=S)n2C(C)c2ccccc2)cs1 (stereo not drawn)	1.2 nM
CCOC(=O)c1c(-c2ccc(C)cc2)csc1NC(=O)c1ccc(N2C(=O)CCC2=O)cc1	1.5 nM
CCC(=O)N(CC)c1nc(-c2cc(OC)ccc2OC)cs1	1.09 nM
CCOC(=O)c1ccccc1NC(=O)COc1ccccc1	1.04 nM
CCOC(=O)c1c(NC(=O)CSc2nnc(N)s2)sc(C)c1-c1ccc(C)cc1	0.48 nM
COc1ccc2c(C)cc(SCC(=O)Nc3ncc(Cl)cc3Cl)nc2c1	1.52 nM
CC1=CC2C(C(C)C)CCC(C)(O)C2CC1 (stereo not drawn)	0.68 nM
CCOC(=O)/C(N=Nc1c(Br)cc(Br)cc1Br)=C(\C)O	0.84 nM
O=C(NCc1ccco1)c1ccc(=O)[nH]n1	1.06 nM
C=CCC1(C)C(=O)N(c2ccccc2)c2ccccc21 (stereo not drawn)	2.93 nM
Cc1noc(C)c1CSc1nc2ccccc2c(=O)n1-c1ccc(Cl)cc1	0.83 nM
CC(=O)C1CC[C@H]2C3CC[C@H]4C[C@H](O)CC[C@]4(C)C3CC[C@]12C (stereo partly drawn)	0.89 nM
CCc1ccc(C2=Nn3c(nnc3-c3cccs3)SC2)cc1	1.43 nM
CCCCOc1ccc(-c2nnc(-c3ccco3)o2)cc1	1.18 nM
COc1cc(OC)c(OC)cc1CNCCc1ccc(OC)c(OC)c1	1.3 nM
